# Literature values as cited in US20230149600A1, “COLLAGEN-BASED DEVICE HAVING ANTIFUNGAL PROPERTIES” (AROA BIOSURGERY LIMITED, priority 2016, published 2023).
# What was measured:
# C. albicans = details: 20 strains of C. albicans
# C. albicans biofilms = details: doxycycline concentrations >0.512 mg/mL; not correlated with fungicidal efficacy
# [1] = test system: fungal spores of the genera Aspergillus, Penicillium and Curvularia; details: called "moderate" activity
# Candida albicans = details: 5% (50 mg/mL) doxycycline solution
substance,measurement,setting,value
Doxycycline,MIC range,C. albicans,640 to 1280 µg/mL
same,reduction in metabolic activity of C. albicans biofilms,C. albicans biofilms,≥ 80%
same,inhibition of fungal spore germination,[1],50-70%
same,antifungal effect relative to other solutions,Candida albicans,more active than a 17% EDTA solution but less active than a 2.5% NaOCl solution or a 0.2% chlorhexidine gluconate solution
